# Biological target: T1, cPLA2 (Homo sapiens, UniProt P47712)
# T1 sequence (P47712 1-749): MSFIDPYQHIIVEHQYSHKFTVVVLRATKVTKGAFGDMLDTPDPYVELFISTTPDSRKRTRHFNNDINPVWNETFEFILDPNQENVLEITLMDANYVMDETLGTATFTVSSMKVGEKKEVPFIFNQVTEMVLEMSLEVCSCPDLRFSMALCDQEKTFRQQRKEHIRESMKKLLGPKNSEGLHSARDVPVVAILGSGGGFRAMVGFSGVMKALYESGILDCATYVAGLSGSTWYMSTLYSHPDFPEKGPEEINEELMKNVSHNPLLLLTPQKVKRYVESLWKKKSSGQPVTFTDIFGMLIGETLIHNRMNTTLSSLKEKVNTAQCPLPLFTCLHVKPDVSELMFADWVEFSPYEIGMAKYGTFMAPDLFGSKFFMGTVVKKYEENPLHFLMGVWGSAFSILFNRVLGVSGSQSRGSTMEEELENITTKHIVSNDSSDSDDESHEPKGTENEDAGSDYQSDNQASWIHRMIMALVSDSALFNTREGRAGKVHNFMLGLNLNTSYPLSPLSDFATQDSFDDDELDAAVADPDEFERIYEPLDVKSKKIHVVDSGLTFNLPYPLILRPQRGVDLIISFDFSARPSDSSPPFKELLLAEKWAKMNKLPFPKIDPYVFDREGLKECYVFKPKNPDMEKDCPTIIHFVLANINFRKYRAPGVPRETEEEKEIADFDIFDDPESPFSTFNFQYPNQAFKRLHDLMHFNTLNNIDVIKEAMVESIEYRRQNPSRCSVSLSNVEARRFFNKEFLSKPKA
# Assay: cPLA2 Inhibitory activity (release of radiolabelled fatty acid from liposomes)
# Assay type: biochemical
# Conditions: 50 mM HEPES pH 7.4, 1 mM CaCl2, 2.5 μM radio-labeled phosphatidylcholine, 15 min at 37° C; read-out: cPLA2 Inhibition Activity IC50
# Description: Experiment 1 cPLA2 Inhibitory activity
# The compounds of the present invention was tested for the cPLA2 inhibitory activity by a method known in a literature (R. M. Kramer, E. F. Roberts, J. Manetta and J. E. Putnam, J. Biol. Chem., 268(8), 5268-5272 ([…])), as outlined below.
# As a substrate, liposomes which contain 1-palmitoyl-2-[^14 C]-arachidonoyl-sn-glycero-3-phosphocholine and sn-1,2-dioleoylglycerol at the ratio of 2:1 and have treated ultrasonically were used. The substrate was added to a 50 mM HEPES buffer (pH 7.4) (200 μl) containing 1 mM CaCl2, 2 mM dithiothreitol, 150 mM NaCl, 0.1 mg/ml BSA so as to make the concentration of radio-labeled phosphatidylcholine 2.5 μM. To the solution was added a compound of the present invention in DMSO (10 μl) to obtain reaction solutions each containing the test compound at 250 μM, 50 μM, 10 μm, 2 μM, and 0.4 μM. The reaction was allowed to start by adding an enzyme (cPLA2) (4 ng) and continued for 15 min at 37° C.
# The amount of fatty acids released by the reaction was measured on a liquid scintillation counter. Control was obtained by conducting the experiment in the same manner except that a compound of the present invention was not added. The inhibitory activity was expressed as percent (%) to the control value, which was used for the calculation of the concentration required for 50% inhibition (IC50, μM).
row,SMILES,IC50
1,O=C1NC(=S)SC1=Cc1ccc(NC(=O)[C@@H]2C[C@H](SCc3ccccc3)CN2C(=O)c2ccccc2)cc1 [Compound A-2],7.2 µM
2,Cc1cc(C)c(CS[C@H]2C[C@@H](C(=O)Nc3ccc(C=C4SC(=O)NC4=O)cc3)N(C(=O)c3ccccc3)C2)c(C)c1 [Compound A-10],3.8 µM
3,O=CN1C[C@@H](SCc2ccccc2)C[C@H]1C(=O)Nc1ccc(C=C2SC(=S)NC2=O)cc1 [Compound A-13],20 µM
4,CC(=O)N1C[C@@H](SCc2ccccc2)C[C@H]1C(=O)Nc1ccc(C=C2SC(=S)NC2=O)cc1 [Compound A-14],18 µM
5,CS[C@H]1C[C@@H](C(=O)Nc2ccc(C=C3SC(=S)NC3=O)cc2)N(C(=O)c2ccc(C(F)(F)F)cc2)C1 [Compound A-15],15 µM
6,O=C1NC(=S)SC1=Cc1ccc(NC(=O)[C@@H]2C[C@H](SCc3ccccc3)CN2)cc1 [Compound A-18],16 µM
7,CCCCCCCCCCCCCC(=O)N1C[C@@H](SC)C[C@H]1C(=O)Nc1ccc(C=C2SC(=S)NC2=O)cc1 [Compound A-19],4.3 µM
8,CS[C@H]1C[C@@H](C(=O)Nc2ccc(C=C3SC(=S)NC3=O)cc2)N(C(=O)CCc2ccccc2)C1 [Compound A-22],21 µM
9,CCCCS(=O)(=O)N1C[C@@H](SCc2ccccc2)C[C@H]1C(=O)Nc1ccc(C=C2SC(=S)NC2=O)cc1 [Compound A-31],4.8 µM
10,CN(C)S(=O)(=O)N1C[C@@H](SCc2ccccc2)C[C@H]1C(=O)Nc1ccc(C=C2SC(=S)NC2=O)cc1 [Compound A-32],4.8 µM
11,CC(C)S(=O)(=O)N1C[C@@H](SCc2ccccc2)C[C@H]1C(=O)Nc1ccc(C=C2SC(=S)NC2=O)cc1 [Compound A-33],6.4 µM
12,CS[C@H]1C[C@@H](C(=O)Nc2ccc(/C=C3\SC(=S)NC3=O)cc2)N(S(=O)(=O)c2ccc(Br)cc2)C1 [Compound A-34],6.3 µM
13,CS[C@H]1C[C@@H](C(=O)Nc2ccc(/C=C3\SC(=O)NC3=O)cc2)N(S(=O)(=O)c2ccc(Br)cc2)C1 [Compound A-35],1.9 µM
14,O=C1NC(=S)S/C1=C\c1ccc(NC(=O)[C@@H]2C[C@H](SCc3ccccc3)CN2S(=O)(=O)N2CCOCC2)cc1 [Compound A-36],14 µM
15,CS[C@H]1C[C@@H](C(=O)Nc2ccc(/C=C3\SC(=S)NC3=O)cc2)N(S(=O)(=O)c2ccc(Cc3ccccc3)cc2)C1 [Compound A-47],6 µM
16,CS[C@H]1C[C@@H](C(=O)Nc2ccc(/C=C3\SC(=S)NC3=O)cc2)N(S(=O)(=O)c2ccc(N(C)C)cc2)C1 [Compound A-49],17 µM
17,CS[C@H]1C[C@@H](C(=O)Nc2ccc(/C=C3\SC(=O)NC3=O)cc2)N(S(=O)(=O)c2ccc3ccccc3c2)C1 [Compound A-50],12 µM
18,O=C1NC(=S)S/C1=C\c1ccc(NC(=O)[C@@H]2C[C@H](SCc3ccccc3)CN2S(=O)(=O)c2cccc3cccnc23)cc1 [Compound A-51],6.3 µM
19,O=C1NC(=S)S/C1=C\c1ccc(NC(=O)[C@@H]2C[C@H](SCc3ccccc3)CN2S(=O)(=O)c2ccc(N=Nc3ccccc3)cc2)cc1 [Compound A-57],4.7 µM
20,CC(=O)Nc1nc(C)c(S(=O)(=O)N2C[C@@H](SCc3ccccc3)C[C@H]2C(=O)Nc2ccc(/C=C3\SC(=S)NC3=O)cc2)s1 [Compound A-59],8.6 µM
21,O=C1NC(=S)O/C1=C\c1ccc(NC(=O)[C@@H]2C[C@H](SC(c3ccccc3)(c3ccccc3)c3ccccc3)CN2S(=O)(=O)c2ccc(-c3ccccc3)cc2)cc1 [Compound A-63],3.2 µM
22,O=C1NC(=O)C(=Cc2ccc(S(=O)(=O)NC[C@@H]3C[C@H](SC(c4ccccc4)c4ccccc4)CN3C(=O)c3ccccc3)cc2)S1 [Compound B-8],1.3 µM
23,O=C1NC(=O)C(=Cc2ccc(S(=O)(=O)NCC3CC(SC(c4ccccc4)(c4ccccc4)c4ccccc4)CN3C(=O)c3ccccc3)cc2)S1 (stereo not shown) [Compound B-9],0.44 µM

row,SMILES,IC50
1,O=C1NC(=O)/C(=C/c2ccc(COC[C@@H]3C[C@H](SC(c4ccccc4)(c4ccccc4)c4ccccc4)CN3C(=O)CCc3ccccc3)cc2)S1 [Compound E-1],1.1 µM
2,O=C1NC(=O)/C(=C/c2ccc(CCC[C@@H]3C[C@H](SC(c4ccccc4)(c4ccccc4)c4ccccc4)CN3C(=O)CCc3ccccc3)cc2)S1 [Compound E-3],0.85 µM
3,O=C1NC(=O)C(=Cc2ccc(OC[C@@H]3C[C@H](SCc4ccccc4)CN3C(=O)c3ccccc3)cc2)S1 [Compound E-5],7.7 µM
4,O=C1NC(=S)SC1=C[C@@H]1C[C@H](SCc2ccccc2)CN1S(=O)(=O)c1ccc(-c2ccccc2)cc1 [Compound F-2],10 µM
5,CC(C)=CCC/C(C)=C/COC1C[C@@H](C(=O)Nc2ccc(/C=C3\SC(=O)NC3=O)cc2)N(C(=O)c2ccccc2)C1 (stereo partly shown) [Compound G-1],9 µM
6,O=C1NC(=O)/C(=C/c2ccc(NC(=O)[C@@H]3CC(OCc4ccc(F)cc4)CN3C(=O)c3ccccc3)cc2)S1 (stereo partly shown) [Compound G-2],20 µM
7,O=C1NC(=O)/C(=C/c2ccc(NC(=O)[C@@H]3CC(OCc4ccc(Cl)cc4)CN3C(=O)c3ccccc3)cc2)S1 (stereo partly shown) [Compound G-3],17 µM
8,O=C1NC(=O)/C(=C/c2ccc(NC(=O)[C@@H]3CC(OCc4ccc(C(F)(F)F)cc4)CN3C(=O)c3ccccc3)cc2)S1 (stereo partly shown) [Compound G-4],14 µM
9,Cc1cc(C)c(COC2C[C@@H](C(=O)Nc3ccc(C=C4SC(=O)NC4=O)cc3)N(C(=O)c3ccccc3)C2)c(C)c1 (stereo partly shown) [Compound G-6],10 µM
10,O=C1NC(=O)/C(=C/c2ccc(NC(=O)[C@@H]3CC(OC(c4ccccc4)c4ccccc4)CN3C(=O)c3ccccc3)cc2)S1 (stereo partly shown) [Compound G-9],4.2 µM
11,O=C1NC(=O)/C(=C/c2ccc(C(=O)NC[C@@H]3CC(OC(c4ccccc4)c4ccccc4)CN3C(=O)c3ccccc3)cc2)S1 (stereo partly shown) [Compound H-1],6.7 µM
12,O=C1NC(=O)/C(=C/c2ccc(C(=O)NC[C@@H]3CC(OCc4ccc(F)cc4F)CN3S(=O)(=O)Cc3ccc(Br)cc3)cc2)S1 (stereo partly shown) [Compound H-2],8.1 µM
13,Cc1ccc(CS(=O)(=O)N2CC(OCc3ccc(F)cc3F)C[C@H]2CNC(=O)c2ccc(/C=C3\SC(=O)NC3=O)cc2)cc1 (stereo partly shown) [Compound H-3],14 µM
14,COC1C[C@@H](CNC(=O)c2ccc(/C=C3\SC(=O)NC3=O)cc2)N(S(=O)(=O)c2ccc(Cc3ccccc3)cc2)C1 (stereo partly shown) [Compound H-4],26 µM
15,O=C1NC(=O)/C(=C/c2ccc(C(=O)NC[C@@H]3CC(OCc4ccc(F)cc4F)CN3S(=O)(=O)c3ccc(Cc4ccccc4)cc3)cc2)S1 (stereo partly shown) [Compound H-5],6.4 µM
16,CC(C)(C)OC(=O)N1CC(OCc2ccc(F)cc2F)C[C@H]1CNC(=O)c1ccc(/C=C2\SC(=O)NC2=O)cc1 (stereo partly shown) [Compound H-6],1.7 µM
17,CC(C)(C)OC(=O)N1CC(OCc2ccc(F)cc2F)C[C@H]1CNC(=O)c1ccc(/C=C2\SC(=S)NC2=O)cc1 (stereo partly shown) [Compound H-7],11 µM
18,O=C1NC(=O)/C(=C/c2ccc(C(=O)NC[C@@H]3C[C@H](OC(c4ccccc4)c4ccccc4)CN3C(=O)c3cccc(OCN4C(=O)c5ccccc5S4(=O)=O)c3)cc2)S1 [Compound H-12],6.2 µM
19,O=C1NC(=O)/C(=C/c2ccc(C(=O)NC[C@@H]3C[C@H](OC(c4ccccc4)c4ccccc4)CN3C(=O)c3ccc(OCN4C(=O)c5ccccc5S4(=O)=O)cc3)cc2)S1 [Compound H-13],4.4 µM
20,CC(C)(C)[Si](C)(C)N1C(=O)C[C@H]1C(=O)N1C[C@@H](OC(c2ccccc2)c2ccccc2)C[C@H]1CNC(=O)c1ccc(/C=C2\SC(=O)NC2=O)cc1 [Compound H-14],8.2 µM
21,CC(=O)Oc1ccc(OC(C)=O)c(CCCCCCC(=O)N2C[C@@H](OC(c3ccccc3)c3ccccc3)C[C@H]2CNC(=O)c2ccc(/C=C3\SC(=O)NC3=O)cc2)c1 [Compound H-15],11 µM
22,O=C1NC(=O)/C(=C/c2ccc(S(=O)(=O)NC[C@@H]3CC(OCc4ccc(F)cc4F)CN3S(=O)(=O)Cc3ccc(Br)cc3)cc2)S1 (stereo partly shown) [Compound H-19],8.6 µM
23,O=C1NC(=O)/C(=C/c2ccc(S(=O)(=O)NC[C@@H]3CC(OCc4ccc(F)cc4F)CN3S(=O)(=O)c3ccc(Cc4ccccc4)cc3)cc2)S1 (stereo partly shown) [Compound H-20],6.6 µM
